From patent US7893031B2, “Neuronal differentiation inhibitor peptide and use thereof” (Toagosei Co., Ltd., priority 2005, dated 2011)
No end group written: not given here.

Test system: adipose stem cells procured from humans
Test: Evaluation of neuronal differentiation inhibitor activity of the synthetic peptides (immunostaining for MAPs and NeuN neuron markers, confocal laser microscopy)
Assay type: cell-based
Settings: culture of human adipose stem cells, 24 hours after peptide addition; for degree of neuronal differentiation (neuron markers MAPs and NeuN) when added together with VHL peptide: sample peptide added together with VHL peptide (comparative sample 1), each about 100 ng/mL
Protocol: Each sample obtained in example 1 was analyzed for the neuronal differentiation inhibitor activity.
In particular, each sample peptide together with the peptide of comparative sample 1 (hereinafter referred to as VHL peptide) was added to and incubated in a culture of adipose stem cells procured from humans. The addition concentration of each peptide was about 100 ng/mL. For comparison, a culture containing VHL peptide alone was incubated in a similar manner.
At 24 hours after peptide addition, evaluation was carried out by a standard immune antibody procedure. Specifically, MAPs ([…]) and NeuN (neuronal nuclei) were added as neuron markers, and the degree of neuronal differentiation was evaluated by confocal laser microscopy. MAPs is a marker that can stain (detect) broadly, from relatively immature neurons to mature neurons. NeuN is a marker that can specifically stain (detect) mature neurons.

Substance	degree of neuronal differentiation (neuron markers MAPs and NeuN) when added together with VHL peptide	degree of neuronal differentiation (neuron markers MAPs and NeuN) (VHL peptide alone, about 100 ng/mL)
YARAAARQARA-SLQTLCEISLMRNHS (YARAAARQARASLQTLCEISLMRNHS; not fully specified (C-terminus); printed as YARAAARQARA-SLQTLCEISLMRNHS) [Sample 3, PTD4 domain plus 15 N-terminal residues of the BC-box of S. cerevisiae elongin-A]	no significant neuronal differentiation was observed	–
YARAAARQARA-TLHQQCIRVLKNNID (YARAAARQARATLHQQCIRVLKNNID; not fully specified (C-terminus); printed as YARAAARQARA-TLHQQCIRVLKNNID) [Sample 1, PTD4 domain plus 15 N-terminal residues of the BC-box of human elongin-A]	no significant neuronal differentiation was observed	–
YARAAARQARA-TLKERCLQVVRSLVK (YARAAARQARATLKERCLQVVRSLVK) [VHL peptide, reference compound]	–	significant neuronal differentiation
YARAAARQARA-TLVSLCQTVLMSHID (YARAAARQARATLVSLCQTVLMSHID; not fully specified (C-terminus); printed as YARAAARQARA-TLVSLCQTVLMSHID) [Sample 2, PTD4 domain plus 15 N-terminal residues of the BC-box of C. elegans elongin-A]	no significant neuronal differentiation was observed	–
